Values quoted from earlier work as cited in patent US4771122A, “Novel cyclosporins” (Sandoz Ltd., priority 1985, dated 1988).

Details: reported in literature

[(D)Pro]^3 -Cyclosporine
immunosuppressive activity: substantially lacking in immunosuppressive activity
